Experimental data from the METLIN SMRT retention time set (Domingo-Almenara et al. 2019).

Test: gradient 5% acetonitrile 3 min, to 50% in 2 min, to 85% in 15 min, held 3 min, 100 µL/min
Settings: column: Zorbax Extend-C18 2.1 x 50 mm; eluents: water / acetonitrile, 0.1% formic acid
Procedure, shortened: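 Each retention time is based on an adduct peak selected computationally and verified by manual inspection. Measurements used HPLC–quadrupole time-of-flight mass spectrometry in positive and negative ionization mode on mixtures of ~100 pure standards. Chromatography ran on a Zorbax Extend-C18 column (2.1 × 50 mm, 1.8 μm) at 100 μL/min with water and acetonitrile, each containing 0.1% formic acid, and dead and dwell volumes of 40 μL and 900 μL.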

Structure (SMILES)	RP-LC retention time
CC(C)(C)C(=O)Nc1ccc(N2CCN(CC(=O)N3CCCC3)CC2)cc1C(=O)O	573 s
CCn1cc(S(=O)(=O)Nc2ccc(OC)cc2)c2cccnc21	786 s
O=C(Cn1cnc2c(sc3nc(-c4ccccc4)ccc32)c1=O)Nc1ccc(Br)cc1	1120 s
COc1cn(CC(=O)Nc2ccccc2C)c(CSc2nc(C)cs2)cc1=O	628 s
Cc1ccsc1-c1nnc(CC(=O)N2CCN(Cc3ccccc3)CC2)o1	630 s
Cc1ccc(-c2nnc(-c3cccc(S(=O)(=O)NCc4cccnc4)c3)o2)cc1	696 s
CCC(=O)N1CCc2ccccc2C1C(=O)N1CCN(c2ccccc2)CC1 (stereo unspecified)	852 s
COc1ccccc1-c1cnn2c(Nc3ccc(NC(C)=O)cc3)cc(C)nc12	593 s
COc1ccc(CNC(=O)C2(C)CCCN(S(=O)(=O)c3ccc(C)cc3)C2)cc1 (stereo unspecified)	946 s
CC(C)(Oc1ccc(Cl)cc1)C(=O)Nc1c(-c2ccc(F)cc2)nc2ccccn12	821 s
O=C(Cc1ccc(NC(=O)NC2CC2)cc1)NCC(F)(F)F	611 s
O=C(CCc1conc1-c1ccc(F)cc1)N1CCN(c2ccc(Cl)cc2)CC1	1090 s
O=C(c1cccc(F)c1)N1CCC(C(=O)N2CCN(Cc3ccc4c(c3)OCO4)CC2)CC1	610 s
CCN(CC)S(=O)(=O)c1ccc2c(c1)CC(C(=O)NCCN(C)C)N2C(C)=O (stereo unspecified)	645 s
COc1ccccc1-n1ccn2cc(-c3ccc4c(c3)OCO4)nc2c1=O	776 s
COCCN1CC2(CCN(S(=O)(=O)c3ccc(F)cc3F)CC2)C1c1ccncc1 (stereo unspecified)	623 s
CNC(=O)[C@@H]1C[C@H](Oc2ccccc2)CN1C(=O)CCCc1c[nH]c2ccccc12	800 s
O=c1c2sccc2n(Cc2nc(-c3ccccc3)no2)c(=O)n1-c1ccc(F)cc1	969 s
COc1ccc(-c2nnc(Cc3nc(-c4ccc(OC)c(F)c4)no3)o2)cc1	1040 s
O=C(NCc1ccccc1)N1CCN(c2nc3cccnc3n(Cc3ccccc3)c2=O)CC1	1020 s

The remaining lines, values ahead:

RP-LC retention time	Structure (SMILES)
771 s	CC(C)c1noc(-c2ccnc(-n3cnc(C(=O)NC4CCCCCC4)c3)c2)n1
706 s	COc1cc(C(=O)NC2CCN(c3cc(-c4ccc(F)cc4)[nH]n3)C2)cc(OC)c1OC (stereo unspecified)
860 s	CC(=O)Nc1ccc(OCc2cc(C(=O)NC3CCC(C)CC3)no2)cc1 (stereo unspecified)
728 s	COc1ccc(CNC(=O)C2CCCN2S(=O)(=O)c2cc3c(cc2C)NC(=O)CO3)cc1 (stereo unspecified)
869 s	CN(Cc1ccccc1)C(=O)c1cn(-c2cc(N3CCSCC3)ncn2)cn1
1030 s	CCCn1cc(CCNS(=O)(=O)c2ccc3c(c2)CCCC3)c2cccnc21
642 s	O=C(NCCN1CCOCC1)C1CCN(S(=O)(=O)c2ccc(-c3noc(C4CC4)n3)cc2)CC1
791 s	O=C(Cn1ccc2ccc(N3CCOCC3)nc21)NCc1ccc2c(c1)OCO2
884 s	Cc1ccc(NC(=O)Cn2nc(C(=O)N3CCCC3)c3ccccc32)cc1F
810 s	COc1ccc(OC)c(Nc2nc(NCC3CCCO3)nc(N)c2[N+](=O)[O-])c1 (stereo unspecified)
1160 s	Cc1cc(C)c2c(-n3cccc3)nn(CC(=O)Nc3ccc(C(C)C)cc3)c2n1
601 s	CCN(CCN(C)C)C(=O)c1c2c(nc3ccccc13)C(=O)N(C1CCCCC1)C2
714 s	CN(C)S(=O)(=O)c1ccc(C(=O)N2CCCC(c3nnc(-c4cccs4)o3)C2)cc1 (stereo unspecified)
960 s	COc1cc(NC(C)=O)c2ncccc2c1Br
1060 s	Cc1cccc(-c2nc(N3CC4(C)CC3CC(C)(C)C4)c3ccccc3n2)c1 (stereo unspecified)
713 s	CC(C)NC(=O)c1nsc(C(=O)NC2CC2)c1N
